Reference: patent US11884708B2, “Stapled peptide inhibitors of nemo as potential anti-inflammatory and anti-cancer drugs” (INSTITUT PASTEUR, priority 2015, dated 2024)
Where a SMILES comes first, the peptide text is derived from it. Bridges are numbered along the chain shown (N, C = ends). [ ]: non-standard residue; d: D form. The star is where a group is joined. BODIPYFLEthylmaleimide = Cc1cc(C)n2c1C=C1C=CC(CCC(=O)NCCN3C(=O)CC(*)C3=O)=[N+]1[B-]2(F)F; Succinimide(1-Et,3-yl) = CCN1C(=O)CC(*)C1=O; S5 = C=CCCC[C@](C)(N)C(=O)O; Aib = CC(C)(N)C(=O)O

Columns and labels:
[1] = circular dichroism; conditions: 10 mM sodium phosphate; pH 7; 1 °C; 50 uM
[2] = molecular target: NF-κB pathway (Mus musculus, UniProt O88522); experiment: NF-κB inhibition assay, LPS-stimulated 70Z3-C3 lacZ reporter cells; type: cell-based; conditions: for IC 50 NF-κB inhibition: 70Z3-C3 cells, 2 h peptide then LPS 4 h, N.I = No inhibition observed
NF-κB pathway, sequence (O88522 whole entry): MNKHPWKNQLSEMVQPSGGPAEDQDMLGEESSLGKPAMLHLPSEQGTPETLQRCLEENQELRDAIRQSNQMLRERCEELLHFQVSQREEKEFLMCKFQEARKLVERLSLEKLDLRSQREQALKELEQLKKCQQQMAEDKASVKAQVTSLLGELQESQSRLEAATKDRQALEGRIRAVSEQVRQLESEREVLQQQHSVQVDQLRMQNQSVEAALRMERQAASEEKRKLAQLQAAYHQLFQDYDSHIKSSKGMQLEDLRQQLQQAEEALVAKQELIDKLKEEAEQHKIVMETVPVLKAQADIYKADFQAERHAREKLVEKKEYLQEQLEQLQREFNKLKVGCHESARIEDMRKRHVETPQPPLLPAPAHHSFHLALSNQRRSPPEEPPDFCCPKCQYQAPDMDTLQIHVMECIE
From the text: The stable cell line of pre-B lymphocyte 70Z3-C3 cells expressing the lacZ reporter gene under the control of NF-κB was previously described. OCI-Ly3 (ABC-DLBCL, MALT1 dependent) and OCI-Ly7 (GCB-DLBCL). U2932 (ABC-DLBCL, MALT1 independent) were purchased from DSMZ (Deutsche Sammlung von Mikroorganismen and Zellkulturen) and HLY1 (ABC-DLBCL, MALT1 independent). Jurkat T-cells were obtained after transduction of lentiviruses containing a NF-κB reporter luciferase gene as previously described. All cell lines were grown in RPMI 1640 medium supplemented with 10% FBS, 10 μg/ml of streptomycin, 10 U/ml of penicillin and kept at 37° C., in a 5% CO2 humidified incubator. 0.05 mM of β-mercaptoethanol was added for 70Z3-C3. Primary and secondary antibodies were as following: polyclonal rabbit anti NF-κB p65, (sc-372, Santa Cruz Biotechnology, Inc) Alexa-488 coupled goat anti-rabbit IgG1 (Invitrogen) NF-κB inhibition assay was almost similar to those previously described in [1], except that luminescence data were monitored with a Centro XS^3, LB960 luminometer (Berthold technologies.), which is more sensitive. All experiments were performed in duplicates in 96-well plates. […] After 4 h incubation, cells were centrifuged 7 min at 400×g, at 4° C.

[3] = tested on: OCI-Ly3 (ABC-DLBCL, MALT1 dependent); experiment: Cell death assay (CellTiter-Blue resazurin); type: cell-based, human; conditions: OCI-Ly3, 48 h
Procedure: The CellTiter-Blue® Cell Viability kit assay purchased from Promega was used to assess the cell death induced by NEMO stapled peptides in ABC- and GCB-DLBCL cell lines. […] Cells were considered 100% death when the fluorescence intensity value was the same as the one with the medium alone or with the cells treated with the cycloheximide protein synthesis inhibitor at 25 μM (Sigma Aldrich).
For each time point measurement 100 μl of cell samples were withdrawn at different incubation times (7 h, 24 h and 48 h) and subjected to resazurin assay for one hour at 37° C. in the CO2 incubator by adding and mixing for 10 sec 20 μl of resazurin. Fluorescence measurements were performed with a TECAN infinite F500 instrument at 560 nm excitation wavelength and 590 nm emission wavelength. Viability of cells at time 0 was determined just before adding compound and all experiments were performed in duplicate.
The percentage of cell death was calculated according to the following formula: (1−((RFUobs−blank)/(RFU100% viability−blank))*100), where RFUobs corresponds to the cells viability observed in the presence of compound, RFU100% viability, the initial cells viability and blank the background fluorescence measured using the medium alone.
The EC50 value was calculated by plotting the percentage of cell death as function of the compound concentration and fitting the experimental curve with the following formula: (A*P0)/(EC50+P0), where A is the amplitude of fluorescence, P0 is the peptide concentration.
To compare the inhibition efficiency of BA-UBI-SAHND306-Q313 with IKK inhibitors (MLN120B, MedChem Express) or IKKα/β inhibitor (TPCA1, R&D systems), 25,000 DLBCL cells (OCI-Ly3) were incubated for 7 h with an increasing concentration of IKK inhibitors ranging from 0 to 50 μM, and the amount of cell death was then determined using CellTiter-Blue® Cell Viability kit assay. For the MI-2 MALT1 inhibitor (Fontan et al., 2012, Cancer cell 22, 812-824), similar experiments were carried out in MALT dependent (OCI-Ly3) and independent (HLY1) DLBCL cells using a 0-25 μM range.

[4] = molecular target: CC2-LZ domain of NEMO (Mus musculus, UniProt O88522); experiment: Fluorescence anisotropy/polarization binding assay
CC2-LZ domain of NEMO, sequence (O88522 242-343 limits assumed): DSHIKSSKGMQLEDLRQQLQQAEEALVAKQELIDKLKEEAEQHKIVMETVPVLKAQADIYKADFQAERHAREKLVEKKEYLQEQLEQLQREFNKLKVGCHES

[5] = Temperature-induced denaturation followed by CD; type: physicochemical; conditions: 30 μM or 300 μM, ΔCp ≈ 0
[6] = CD spectroscopy, α-helical content; type: physicochemical; conditions: 50 μM peptide, phosphate buffer pH 7.0, UBI in TFE taken as 100%
[7] = tested on: 70Z3-C3 cells; experiment: Cellular uptake of BODIPY-labeled peptides by FACS; type: cell-based; conditions: 10 μM labeled peptide, 2 h, 37° C.
Procedure: 2.2×10^5 cells in 100 μl of 70Z3-C3 were incubated with either 10 μM or with various doses of 10 μM, 5 μM and 1 μM of labeled-peptides at 37° C., 5% CO2. Similarly to fluorescence microscopy experiments, cells alone or incubated with BODIPY®-labeled BSA (ref) or BODIPY®-UBI devoid of the antennapedia cell penetrating sequence were used as negative control, whereas cells with BA-UBI [1] at 10 μM were used as positive control. After 2 h incubation, cells were washed 4 times with PBS at room temperature, and finally diluted 1:3 in PBS before subjected to FACS analysis. Along with the BODIPY® fluorophore the fluorescence intensity was recorded at 525±25 nm using the Gallios Flow cytometer (Beckman Coulter) to analyse each cells sample. Each internalization peptide was assessed by gating a population of 15,000 events and the data were analysed using Kaluza software version 1.2.
For determination of cellular uptake by flow cytometry, the BA-UBI-SAHND306-Q313 stapled peptide was first incubated with 2.2×10^5 70Z3-C3 cells in […] either at 4° C. or 37° C. for 2 h. Bodipy-labeled BSA, bodipy alone and bodipy-UBI were used as negative controls to verify the washing quality and efficient removal of any non-specific binding at the cell surface before FACS analysis. […] After 2 h of incubation, cells were washed four times with PBS at room temperature and diluted at 1:3 in PBS for FACS analysis. Samples were analyzed as previously described in the European patent (No: 15307137.8).

## CC[C@H](C)[C@H](NC(=O)[C@H](CC(=O)O)NC(=O)[C@H](C)NC(=O)[C@H](CCC(N)=O)NC(=O)[C@H](C)NC(=O)[C@H](CCCCN)NC(=O)[C@H](CC(C)C)NC(=O)[C@H](CSC1CC(=O)N(CC)C1=O)NC(C)=O)C(=O)N[C@@H](Cc1ccc(O)cc1)C(=O)N[C@@H](CCCCN)C(=O)N[C@@H](C)C(=O)N[C@@H](CCCNC(=N)N)C(=O)N[C@@H](Cc1ccccc1)C(=O)N[C@@H](CCC(N)=O)C(=O)N[C@@H](C)C(=O)N[C@@H](CCC(=O)O)C(=O)N[C@@H](CCCNC(=N)N)C(=O)N[C@@H](Cc1c[nH]cn1)C(=O)N[C@@H](C)C(=O)N[C@@H](CCCNC(=N)N)C(=O)N[C@@H](CCC(=O)O)C(=O)N[C@@H](CCCCN)C(N)=O (some centres unmarked) (Ac-C(Succinimide(1-Et,3-yl))LKAQADIYKARFQAERHAREK-NH2)
[1]
  helicity: 42 rel %

## CC[C@H](C)[C@@H]1NC(=O)[C@@](C)(NC(=O)[C@H](C)NC(=O)[C@H](CCC(N)=O)NC(=O)[C@H](C)NC(=O)[C@H](CCCCN)NC(=O)[C@H](CC(C)C)NC(=O)[C@H](CSC2CC(=O)N(CC)C2=O)NC(C)=O)CCCC=CCCC[C@@](C)(C(=O)N[C@@H](CCCNC(=N)N)C(=O)N[C@@H](Cc2ccccc2)C(=O)N[C@@H](CCC(N)=O)C(=O)N[C@@H](C)C(=O)N[C@@H](CCC(=O)O)C(=O)N[C@@H](CCCNC(=N)N)C(=O)N[C@@H](Cc2c[nH]cn2)C(=O)N[C@@H](C)C(=O)N[C@@H](CCCNC(=N)N)C(=O)N[C@@H](CCC(=O)O)C(=O)N[C@@H](CCCCN)C(N)=O)NC(=O)[C@H](CCCCN)NC(=O)[C@H](Cc2ccc(O)cc2)NC1=O (some centres unmarked) (Ac-C(Succinimide(1-Et,3-yl))LKAQA[S5]IYK[S5]RFQAERHAREK-NH2; staple 7-11)
[1]
  helicity: 65 rel %

## CC[C@H](C)[C@H](NC(=O)[C@H](CC(=O)O)NC(=O)[C@H](C)NC(=O)[C@H](CCC(N)=O)NC(=O)[C@H](C)NC(=O)[C@H](CCCCN)NC(=O)[C@H](CC(C)C)NC(=O)[C@H](CSC1CC(=O)N(CC)C1=O)NC(C)=O)C(=O)N[C@@H](Cc1ccc(O)cc1)C(=O)N[C@@H](CCCCN)C(=O)N[C@@]1(C)CCCC=CCCC[C@@](C)(C(=O)N[C@@H](CCC(=O)O)C(=O)N[C@@H](CCCNC(=N)N)C(=O)N[C@@H](Cc2c[nH]cn2)C(=O)N[C@@H](C)C(=O)N[C@@H](CCCNC(=N)N)C(=O)N[C@@H](CCC(=O)O)C(=O)N[C@@H](CCCCN)C(N)=O)NC(=O)[C@H](CCC(N)=O)NC(=O)[C@H](Cc2ccccc2)NC(=O)[C@H](CCCNC(=N)N)NC1=O (some centres unmarked) (Ac-C(Succinimide(1-Et,3-yl))LKAQADIYK[S5]RFQ[S5]ERHAREK-NH2; staple 11-15)
[1]
  helicity: 65 rel %

## CC[C@H](C)[C@H](NC(=O)[C@H](CC(=O)O)NC(=O)C(C)(C)NC(=O)[C@H](CCC(N)=O)NC(=O)C(C)(C)NC(=O)[C@H](CCCCN)NC(=O)[C@H](CC(C)C)NC(=O)[C@H](CSC1CC(=O)N(CC)C1=O)NC(C)=O)C(=O)N[C@@H](Cc1ccc(O)cc1)C(=O)N[C@@H](CCCCN)C(=O)NC(C)(C)C(=O)N[C@@H](CCCNC(=N)N)C(=O)N[C@@H](Cc1ccccc1)C(=O)N[C@@H](CCC(N)=O)C(=O)NC(C)(C)C(=O)N[C@@H](CCC(=O)O)C(=O)N[C@@H](CCCNC(=N)N)C(=O)N[C@@H](Cc1c[nH]cn1)C(=O)NC(C)(C)C(=O)N[C@@H](CCCNC(=N)N)C(=O)N[C@@H](CCC(=O)O)C(=O)N[C@@H](CCCCN)C(N)=O (some centres unmarked) (Ac-C(Succinimide(1-Et,3-yl))LK[Aib]Q[Aib]DIYK[Aib]RFQ[Aib]ERH[Aib]REK-NH2)
[1]
  helicity: 49 rel %

## CC(=O)N[C@@H](CSC1CC(=O)N(CCNC(=O)CCC2=[N+]3C(=Cc4c(C)cc(C)n4[B-]3(F)F)C=C2)C1=O)C(=O)N[C@@H](CCC(=O)O)C(=O)N[C@@H](CC(C)C)C(=O)N[C@@H](C)C(=O)N[C@@H](CCC(N)=O)C(=O)N[C@@H](CC(C)C)C(=O)N[C@@H](CCC(N)=O)C(=O)N[C@@H](C)C(=O)N[C@@H](CCC(=O)O)C(=O)N[C@@H](CC(C)C)C(=O)N[C@@H](CC(=O)O)C(=O)N[C@]1(C)CCCCCCC=CCCC[C@@](C)(C(=O)N[C@@H](CC(=O)O)C(=O)N[C@@H](CCCCN)C(=O)N[C@@H](CCC(N)=O)C(=O)N[C@@H](CCC(=O)O)C(=O)N[C@@H](CC(C)C)C(=O)N[C@@H](CCCNC(=N)N)C(=O)N[C@@H](CCCCN)C(=O)N[C@@H](CC(C)C)C(N)=O)NC(=O)[C@H](CCC(N)=O)NC(=O)[C@H](C(C)C)NC(=O)[C@H](C(C)C)NC(=O)[C@H](C)NC(=O)[C@H](CCC(N)=O)NC(=O)[C@H](C(C)C)NC1=O (single isomer, unassigned) [Co-SAHN I307-A314, ELAQLQAELDXVQAVVQXDKQELRKL, reference compound]
[2]
  IC 50 NF-κB inhibition: N.I*
[2]; LPS-induced NF-κB activation
  NF-κB inhibition activity, in words: does not inhibit
[3]
  cell death: no effect of cell death
[4]
  binding to CC2-LZ, in words: does not interact
[4]; fixed peptide concentration 10 μM, read-out: Binding affinity (FP) at 10 μM
  Kd: > 10 mM

## CC[C@H](C)[C@@H]1NC(=O)[C@@](C)(NC(=O)[C@H](C)NC(=O)[C@H](CCC(N)=O)NC(=O)[C@H](C)NC(=O)[C@H](CCCCN)NC(=O)[C@H](CC(C)C)NC(=O)[C@H](CSC2CC(=O)N(CCNC(=O)CCC3=[N+]4C(=Cc5c(C)cc(C)n5[B-]4(F)F)C=C3)C2=O)NC(C)=O)CCCC=CCCC[C@@](C)(C(=O)N[C@@H](CCCNC(=N)N)C(=O)N[C@@H](Cc2ccccc2)C(=O)N[C@@H](CCC(N)=O)C(=O)N[C@@H](C)C(=O)N[C@@H](CCC(=O)O)C(=O)N[C@@H](CCCNC(=N)N)C(=O)N[C@@H](Cc2c[nH]cn2)C(=O)N[C@@H](C)C(=O)N[C@@H](CCCNC(=N)N)C(=O)N[C@@H](CCC(=O)O)C(=O)N[C@@H](CCCCN)C(N)=O)NC(=O)[C@H](CCCCN)NC(=O)[C@H](Cc2ccc(O)cc2)NC1=O (some centres unmarked) [UBI-SAHN D306-A310] (Ac-C(BODIPYFLEthylmaleimide)LKAQA[S5]IYK[S5]RFQAERHAREK-NH2; staple 7-11)
[5]
  ΔS: −20 cal. mol^−1.K^−1
[5]; thermal denaturation by CD
  Tm: 20 ± 0.3 C°
[5]; van't Hoff enthalpy change at Tm
  ΔH: -5.79 kcal/mol
[2]
  IC 50 NF-κB inhibition: N.I*
[6]
  α-helical content at 1° C.: 65%
[7]
  FACS peak median, first or only peak: 1
  FACS peak median, second peak: 35
[4]; fixed peptide concentration 10 μM
  Binding affinity (FP) at 10 μM: Not detectable
